{
  "source": "patent US12252492B2",
  "about": "“Substituted fused pyrrolo-diazepinones and uses thereof” (Northwestern University, priority 2018, dated 2025)",
  "assay_type_in_all_cases": "cell-based, human",
  "key": {"[1]": {"test_system": "MCF7", "test": "NCI60 one-dose screen, MCF7", "conditions": "MCF7 (Breast Cancer); NCI 60 one-dose, 10^-5 M", "description": "(§1) Anti-cancer activity screening of all compounds was performed by the NCI Developmental Therapeutics Program (DTP) through their NCI60 screening initiative. Assay details can be found at the website dtp.cancer.gov/discovery_development/nci-60/methodology.htm. Information from this website is reproduced here for convenience.\n(§2) As of early 2007 all compounds submitted to the NCI 60 Cell screen are tested initially at a single high dose (10^-5 M) in the full NCI 60 cell panel. Only compounds which satisfy pre-determined threshold inhibition criteria in a minimum number of cell lines will progress to the full 5-dose assay. The threshold inhibition criteria for progression to the 5-dose screen was selected to efficiently capture compounds with anti-proliferative activity based on careful analysis of historical DTP screening data. The threshold criteria may be updated as additional data becomes available.\n(§3) The One-dose data will be reported as a mean graph of the percent growth of treated cells and will be similar in appearance to mean graphs from the 5-dose assay. […]\n(§4) Following drug addition, the plates are incubated for an additional 48 h at 37° C., 5% CO2, 95% air, and 100% relative humidity. […] Bound stain is subsequently solubilized with 10 mM trizma base, and the absorbance is read on an automated plate reader at a wavelength of 515 nm. […]"}, "[2]": {"test_system": "SF-539", "test": "NCI60 one-dose screen, SF-539", "conditions": "SF-539 (CNS Cancer); NCI 60 one-dose, 10^-5 M", "description": "as §1, §2, §3, §4"}, "[3]": {"test_system": "RPMI-8226", "test": "NCI60 one-dose screen, RPMI-8226", "conditions": "RPMI-8226 (Leukemia); NCI 60 one-dose, 10^-5 M", "description": "as §1, §2, §3, §4"}, "[4]": {"test_system": "MOLT-4", "test": "NCI60 one-dose screen, MOLT-4", "conditions": "MOLT-4 (Leukemia); NCI 60 one-dose, 10^-5 M", "description": "as §1, §2, §3, §4"}, "[5]": {"test_system": "SW-620", "test": "NCI60 one-dose screen, SW-620", "conditions": "SW-620 (Colon Cancer); NCI 60 one-dose, 10^-5 M", "description": "as §1, §2, §3, §4"}, "[6]": {"test_system": "786-0", "test": "NCI60 one-dose screen, 786-0", "conditions": "786-0 (Renal Cancer); NCI 60 one-dose, 10^-5 M", "description": "as §1, §2, §3, §4"}, "[7]": {"test_system": "NCI-H460", "test": "NCI60 one-dose screen, NCI-H460", "conditions": "NCI-H460 (Non-Small Cell Lung Cancer); NCI 60 one-dose, 10^-5 M", "description": "as §1, §2, §3, §4"}, "[8]": {"test_system": "MDA-MB-231/ATCC", "test": "NCI60 one-dose screen, MDA-MB-231", "conditions": "MDA-MB-231/ATCC (Breast Cancer); NCI 60 one-dose, 10^-5 M", "description": "as §1, §2, §3, §4"}, "[9]": {"test_system": "HS 578T", "test": "NCI60 one-dose screen, HS 578T", "conditions": "HS 578T (Breast Cancer); NCI 60 one-dose, 10^-5 M", "description": "as §1, §2, §3, §4"}, "[10]": {"test_system": "LOX IMVI", "test": "NCI60 one-dose screen, LOX IMVI", "conditions": "LOX IMVI (Melanoma); NCI 60 one-dose, 10^-5 M", "description": "as §1, §2, §3, §4"}, "[11]": {"test_system": "T-47D", "test": "NCI60 one-dose screen, T-47D", "conditions": "T-47D (Breast Cancer); NCI 60 one-dose, 10^-5 M", "description": "as §1, §2, §3, §4"}, "[12]": {"test_system": "SK-OV-3", "test": "NCI60 one-dose screen, SK-OV-3", "conditions": "SK-OV-3 (Ovarian Cancer); NCI 60 one-dose, 10^-5 M", "description": "as §1, §2, §3, §4"}, "[13]": {"test_system": "SR", "test": "NCI60 one-dose screen, SR", "conditions": "SR (Leukemia); NCI 60 one-dose, 10^-5 M", "description": "as §1, §2, §3, §4"}, "[14]": {"test_system": "UO-31", "test": "NCI60 one-dose screen, UO-31", "conditions": "UO-31 (Renal Cancer); NCI 60 one-dose, 10^-5 M", "description": "as §1, §2, §3, §4"}, "[15]": {"test_system": "DU-145", "test": "NCI60 one-dose screen, DU-145", "conditions": "DU-145 (Prostate Cancer); NCI 60 one-dose, 10^-5 M", "description": "as §1, §2, §3, §4"}, "[16]": {"test_system": "OVCAR-8", "test": "NCI60 one-dose screen, OVCAR-8", "conditions": "OVCAR-8 (Ovarian Cancer); NCI 60 one-dose, 10^-5 M", "description": "as §1, §2, §3, §4"}, "[17]": {"test_system": "MDA-MB-468", "test": "NCI60 one-dose screen, MDA-MB-468", "conditions": "MDA-MB-468 (Breast Cancer); NCI 60 one-dose, 10^-5 M", "description": "as §1, §2, §3, §4"}, "[18]": {"test_system": "PC-3", "test": "NCI60 one-dose screen, PC-3", "conditions": "PC-3 (Prostate Cancer); NCI 60 one-dose, 10^-5 M", "description": "as §1, §2, §3, §4"}},
  "data": [
    {"smiles": "CC(=O)N1c2ccccc2NC2=C(C(=O)N(C)C2(C)C)C1c1ccccc1", "note": "(stereo not drawn) [NUCC-60872]", "values": [
      {"measurement": "Growth Percent", "setting": "[1]", "result": 16.41, "unit": "%"},
      {"measurement": "Growth Percent", "setting": "[2]", "result": 20.14, "unit": "%"},
      {"measurement": "Growth Percent", "setting": "[3]", "result": 12.61, "unit": "%"},
      {"measurement": "Growth Percent", "setting": "[4]", "result": 33.27, "unit": "%"},
      {"measurement": "Growth Percent", "setting": "[5]", "result": 24.24, "unit": "%"},
      {"measurement": "Growth Percent", "setting": "[6]", "result": 80.09, "unit": "%"},
      {"measurement": "Growth Percent", "setting": "[7]", "result": 21.87, "unit": "%"},
      {"measurement": "Growth Percent", "setting": "[8]", "result": 63.32, "unit": "%"},
      {"measurement": "Growth Percent", "setting": "[9]", "result": 20.42, "unit": "%"},
      {"measurement": "Growth Percent", "setting": "[10]", "result": 37.52, "unit": "%"},
      {"measurement": "Growth Percent", "setting": "[11]", "result": 28.72, "unit": "%"},
      {"measurement": "Growth Percent", "setting": "[12]", "result": 55.42, "unit": "%"},
      {"measurement": "Growth Percent", "setting": "[13]", "result": 16.70, "unit": "%"},
      {"measurement": "Growth Percent", "setting": "[14]", "result": 81.99, "unit": "%"},
      {"measurement": "Growth Percent", "setting": "[15]", "result": 78.98, "unit": "%"},
      {"measurement": "Growth Percent", "setting": "[16]", "result": 65.84, "unit": "%"},
      {"measurement": "Growth Percent", "setting": "[17]", "result": 19.19, "unit": "%"},
      {"measurement": "Growth Percent", "setting": "[18]", "result": 36.41, "unit": "%"}
    ]},
    {"smiles": "CC(=O)N1c2ccccc2NC2=C(C(=O)N(Cc3ccccc3)C2(C)C)C1c1ccco1", "note": "(stereo not drawn) [NUCC-608455]", "values": [
      {"measurement": "Growth Percent", "setting": "[1]", "result": 15.26, "unit": "%"},
      {"measurement": "Growth Percent", "setting": "[2]", "result": "−17.85", "unit": "%"},
      {"measurement": "Growth Percent", "setting": "[3]", "result": 23.43, "unit": "%"},
      {"measurement": "Growth Percent", "setting": "[4]", "result": 28.58, "unit": "%"},
      {"measurement": "Growth Percent", "setting": "[5]", "result": 21.68, "unit": "%"},
      {"measurement": "Growth Percent", "setting": "[6]", "result": 21.45, "unit": "%"},
      {"measurement": "Growth Percent", "setting": "[7]", "result": 4.83, "unit": "%"},
      {"measurement": "Growth Percent", "setting": "[8]", "result": 9.25, "unit": "%"},
      {"measurement": "Growth Percent", "setting": "[9]", "result": 10.67, "unit": "%"},
      {"measurement": "Growth Percent", "setting": "[10]", "result": 25.57, "unit": "%"},
      {"measurement": "Growth Percent", "setting": "[11]", "result": 35.10, "unit": "%"},
      {"measurement": "Growth Percent", "setting": "[12]", "result": 22.71, "unit": "%"},
      {"measurement": "Growth Percent", "setting": "[13]", "result": 23.29, "unit": "%"},
      {"measurement": "Growth Percent", "setting": "[14]", "result": 52.54, "unit": "%"},
      {"measurement": "Growth Percent", "setting": "[15]", "result": 7.82, "unit": "%"},
      {"measurement": "Growth Percent", "setting": "[16]", "result": 26.13, "unit": "%"},
      {"measurement": "Growth Percent", "setting": "[17]", "result": "−1.86", "unit": "%"},
      {"measurement": "Growth Percent", "setting": "[18]", "result": 29.67, "unit": "%"}
    ]}
  ]
}
